# Experimental data reported in patent US10124017B2, “Use of Ginsenoside M1 for preventing or treating gout” (priority 2015, dated 2018).
# How the values were obtained:
# [1] = tested on: mouse J774A.1 macrophages; test: MSU-induced IL-1β production in LPS-primed J774A.1 macrophages (ELISA); type: cell-based; conditions: 1 μg/ml LPS 30 min, then 100 μg/ml MSU 24 h; FIG. 1; p<0.001 compared to MSU alone
# Description: (§1) The mouse macrophages cell line J774A.1 and human monocytic leukemia cell line THP-1 was obtained from the American Type Culture Collection (Rockville, Md.) and cultured in RPMI 1640 medium supplemented with 10% heat-inactivated fetal bovine serum (FBS) and 2 mM L-glutamine (all from Life Technologies, Carlsbad, Calif.) at 37° C. in a 5% CO2 incubator. To induce monocyte-to-macrophage differentiation, THP-1 cells were cultured for 48 h in RPMI-1640 medium supplemented with 100 nM phorbol 12-myristate 13-acetate (Sigma-Aldrich).
# (§2) In FIGS. 1 and 2, J774A.1 macrophages (1×10^5 cells/500 μl medium/well) were incubated for 30 min with or without Ginsenoside M1, then for 30 min with or without 1 μg/ml LPS (from Escherichia coli 0111:B4, purchased from Sigma, St. Louis, Mo.) in the continued presence or absence of Ginsenoside M1, and then for 24 h with or without 100 μg/ml MSU or 100 μg/ml CPPD (all purchased from InvivoGen, San Diego, Calif.). The levels of IL-1β in the culture medium were measured by ELISA.
# (§3) For ELISA assay, 50 μl of biotinylated antibody reagent and 50 μl of culture medium were added to an anti-mouse IL-1β or IL-6 precoated stripwell plate, and incubated at room temperature for 2 h. […] Following the addition of 100 μl of provided stop solution to each well to stop the reaction, the absorbance of the plate was measured by a microplate reader at a 450 nm wavelength. […]
# [2] = tested on: mouse J774A.1 macrophages; test: CPPD-induced IL-1β production in LPS-primed J774A.1 macrophages (ELISA); type: cell-based; conditions: 1 μg/ml LPS 30 min, then 100 μg/ml CPPD 24 h; FIG. 2; p<0.001 compared to CPPD alone
# Description: as §1, §2, §3
# [3] = tested on: C57BL/6 mice; test: MSU-induced peritonitis in vivo (acute gout inflammation); set-up: species or system mouse; conditions: 60 mg/kg oral by gavage day 0, 1, 2, 3 mg MSU i.p., p<0.001 compared to MSU-injection group
# Description: In FIG. 7-9, the animal experiments were conducted in accordance with the guidelines of the National Institutes of Health and approved by the Institutional Animal Care and Use Committee of National Ilan University. Male C57BL/6 mice were purchased from the National Laboratory Animal Center (Taipei, Taiwan). The animals were provided a chow diet and water ad libitum under conditions of 22-24° C., 40-70% relative humidity, and a 12 h light-dark cycle. Ginsenoside M1 (60 mg/kg body weight) was oral administered daily by gavage at day 0, 1 and 2. Acute gout inflammation was induced by intraperitoneal injection each mice with 3 mg of MSU in 0.5 mL of phosphate-buffered saline (PBS) at day 0 and day 2 1 h after Ginsenoside M1 administration. Control mice received 0.5 mL PBS without MSU (n=6). After 4 h, all mice were sacrificed using neck breaking, and the mice were intraperitoneally injected with 5 mL of PBS. The peritoneal fluid was then collected, and the volume of peritoneal fluid was about 4 mL from each mouse. The collected peritoneal exudate cells were washed and resuspended in PBS. The cells were stained with fluorescent antibodies against the neutrophils specific surface markers Ly-6G and CD45 (eBioscience, San Diego, Calif., USA) for 20 min at 37° C. in the dark, and the cell populations were sorted using a FACScan flow cytometer (Becton-Dickinson, San Jose, Calif.). The levels of IL-1β and IL-6 in the peritoneal fluid were measured by ELISA.
# For ELISA assay, 50 μl of biotinylated antibody reagent and 50 μl of culture medium were added to an anti-mouse IL-1β or IL-6 precoated stripwell plate, and incubated at room temperature for 2 h. After washing the plate three times with washing buffer, 100 μl of diluted streptavidin-HRP (horseradish peroxidase) concentrate was added to each well and incubated at room temperature for 30 min. […] Following the addition of 100 μl of provided stop solution to each well to stop the reaction, the absorbance of the plate was measured by a microplate reader at a 450 nm wavelength.
# [4] = tested on: LPS-activated J774A.1 macrophages; test: LPS-induced NLRP3 and proIL-1β expression in J774A.1 macrophages (Western blot); type: cell-based, mouse; conditions: 1 μg/ml LPS 6 h, FIG. 3
# Description: as §1
# In FIG. 3, J774A.1 macrophages (2×10^6 cells/2 ml medium/dish) were incubated for 30 min with or without Ginsenoside M1, then for 6 h with or without 1 μg/ml LPS (from Escherichia coli 0111:B4, purchased from Sigma, St. Louis, Mo.) in the continued presence or absence of Ginsenoside M1. The levels of NLRP3 and proIL-1β in the cell lysates were measured by Western blot. […]
# J774A.1 macrophages were incubated for 30 min with or without Ginsenoside M1, then for 6 h with or without 1 μg/ml LPS in the continued presence or absence of Ginsenoside M1. The levels of NLRP3 and proIL-1β in the cell lysates were measured by Western blot.
# [5] = tested on: human THP-1 macrophages; test: MSU-induced IL-1β, TNF-α and IL-6 production in LPS-primed THP-1 macrophages (ELISA); type: cell-based; conditions: 1 μg/ml LPS 6 h, then 100 μg/ml MSU 24 h
# Description: as §1
# (§4) In FIG. 4-6, THP-1 macrophages (1×10^5 cells/500 μl medium/well) were incubated for 6 h with or without 1 μg/ml LPS, then for 30 min with or without Ginsenoside M1, in the continued presence or absence of LPS, and then for 24 h with or without 100 μg/ml MSU. The levels of IL-1β in the culture medium were measured by ELISA.
# For ELISA assay, 50 μl of biotinylated antibody reagent and 50 μl of culture medium were added to an anti-mouse IL-1β or IL-6 precoated stripwell plate, and incubated at room temperature for 2 h. After washing the plate three times with washing buffer, 100 μl of diluted streptavidin-HRP (horseradish peroxidase) concentrate was added to each well and incubated at room temperature for 30 min. The washing process was repeated; then 100 μl of a premixed tetramethylbenzidine substrate solution was added to each well and developed at room temperature in the dark for 30 min. Following the addition of 100 μl of provided stop solution to each well to stop the reaction, the absorbance of the plate was measured by a microplate reader at a 450 nm wavelength.
# as §4, with “To confirm the anti-inflammatory activities of Ginsenoside M1, human” for “In FIG. 4-6,”, “macrophages” for “macrophages (1×10^5 cells/500 μl medium/well)”
structure (smiles),measurement,setting,value
"CC(C)=CCC[C@](C)(O[C@@H]1OC(CO)[C@@H](O)[C@@H](O)C1O)[C@H]1CC[C@]2(C)C1[C@H](O)CC1[C@@]3(C)CC[C@H](O)C(C)(C)C3CC[C@]12C (stereo partly drawn) [Ginsenoside M1, 20-O-β-D-glucopyranosyl-20(S)-protopanaxadiol]",IL-1β secretion in the culture medium,[1],reduced
same,IL-1β secretion in the culture medium,[2],reduced
same,MSU-induced IL-1β production in the murine peritoneal fluid,[3]; FIG. 7,significantly reduced
same,MSU-induced IL-6 production in the murine peritoneal fluid,[3]; FIG. 8,significantly reduced
same,levels of MSU-induced Ly-6G+ neutrophils in the peritoneal fluid,"[3]; flow cytometry, FIG. 9",significantly reduces
same,level of NLRP3 in the cell lysates,[4],reduced
same,level of proIL-1β in the cell lysates,[4],reduced
same,IL-1β production in the culture medium,"[5]; FIG. 4, p<0.05 and p<0.001 compared to MSU alone",reduced
same,TNF-α production in the culture medium,"[5]; FIG. 5, p<0.05 and p<0.001 compared to MSU alone",reduced
same,IL-6 production in the culture medium,"[5]; FIG. 6, p<0.001 compared to MSU alone",reduced
